In paper PMC8119466, “A screen of FDA-approved drugs identifies inhibitors of protein tyrosine phosphatase 4A3 (PTP4A3 or PRL-3)” (Scientific Reports, 2021):
Structures can show the parent of a compound that is named as a salt. Where two headings read alike, the source gives them in different places.

Key:
Assay type in all cases: biochemical
[1] = target: T1, recombinant PRL-2 (Homo sapiens, UniProt Q12974); experiment: In vitro phosphatase assay (DiFMUP hydrolysis), PRL-2;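 note: PRL-2 activity read as DiFMUP hydrolysis after 20 min at room temperature with drug, enzyme first pre-reduced at 4 °C for 20 min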
T1 construct: 6xHis (N, cleaved yes); made in house; host or cells: E. coli One Shot BL21 Star
T1 sequence (Q12974 1-167): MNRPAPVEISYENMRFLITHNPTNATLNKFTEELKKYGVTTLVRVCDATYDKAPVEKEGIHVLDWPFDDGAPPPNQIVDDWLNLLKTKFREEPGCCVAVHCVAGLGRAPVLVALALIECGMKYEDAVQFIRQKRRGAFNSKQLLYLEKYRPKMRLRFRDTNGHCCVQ

[2] = target: T2, recombinant PRL-1 (Homo sapiens, UniProt Q93096); experiment: In vitro phosphatase assay (DiFMUP hydrolysis), PRL-1; note: test concentration or dose not given here
T2 construct: 6xHis (N, cleaved yes); made in house; host or cells: E. coli One Shot BL21 Star
T2 sequence (Q93096 1-173): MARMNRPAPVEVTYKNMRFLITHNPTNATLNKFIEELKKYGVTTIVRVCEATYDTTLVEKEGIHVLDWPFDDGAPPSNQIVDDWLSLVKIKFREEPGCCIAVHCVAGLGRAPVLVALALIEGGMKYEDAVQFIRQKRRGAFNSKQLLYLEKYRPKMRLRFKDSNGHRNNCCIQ

[3] = target: T3, recombinant PRL-3 (Homo sapiens, UniProt O75365); experiment: In vitro phosphatase assay (DiFMUP hydrolysis), PRL-3; note: test concentration or dose not given here
T3 construct: 6xHis (N, cleaved yes); made in house; host or cells: E. coli One Shot BL21 Star

[4] = FDA-approved drug screen, compared to DMSO

T3 sequence (O75365 whole entry): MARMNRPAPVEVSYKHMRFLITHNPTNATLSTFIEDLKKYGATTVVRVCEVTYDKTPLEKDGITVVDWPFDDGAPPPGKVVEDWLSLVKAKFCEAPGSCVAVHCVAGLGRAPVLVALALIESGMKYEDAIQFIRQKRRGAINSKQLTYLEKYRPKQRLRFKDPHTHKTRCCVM

SMILES | % Phosphatase Activity (compared to DMSO) PRL-2 [1, 4] [%] | % Phosphatase Activity (compared to DMSO) PRL-1 [2, 4] [%] | % Phosphatase Activity (compared to DMSO) PRL-3 [3, 4] [%] | % Phosphatase Activity (compared to DMSO) PRL-2 [1] [%] | % Phosphatase Activity (compared to DMSO) PRL-1 [2] [%] | % Phosphatase Activity (compared to DMSO) PRL-3 [3] [%]
CO/N=C(\C(=O)N[C@@H]1C(=O)N2C(C(=O)O)=C(COC(C)=O)CS[C@H]12)c1csc(N)n1 [Cefotaxime sodium] | 118 | 112 | 91 |  |  | 
CC1=C(C(=O)O)N2C(=O)[C@@H](NC(=O)[C@H](N)C3=CCC=CC3)[C@H]2SC1 [Cefradine] | 76 | 95 | 102 |  |  | 
CC(C)(O/N=C(\C(=O)N[C@@H]1C(=O)N2C(C(=O)[O-])=C(C[n+]3ccccc3)CS[C@H]12)c1csc(N)n1)C(=O)O [Ceftazidime Pentahydrate] | 106 | 100 | 103 |  |  | 
CO/N=C(\C(=O)N[C@@H]1C(=O)N2C(C(=O)O)=C(CSC(=O)c3ccco3)CS[C@H]12)c1csc(N)n1.Cl [Ceftiofur HCl] | 104 | 107 | 84 |  |  | 
CO/N=C(/C(=O)N[C@@H]1C(=O)N2C(C(=O)[O-])=C(CSc3nc(=O)c([O-])nn3C)CS[C@H]12)c1csc(N)n1.O.O.O.[Na+].[Na+] [Ceftriaxone Sodium Trihydrate] | 115 | 102 | 108 |  |  | 
CO/N=C(\C(=O)N[C@@H]1C(=O)N2C(C(=O)O)=C(COC(N)=O)CS[C@H]12)c1ccco1 [Cefuroxime sodium] | 96 | 96 | 82 |  |  | 
Cc1ccc(-c2cc(C(F)(F)F)nn2-c2ccc(S(N)(=O)=O)cc2)cc1 [Celecoxib] | 81 | 92 | 71 |  |  | 
CC1=C(C(=O)O)N2C(=O)[C@@H](NC(=O)[C@H](N)c3ccccc3)[C@H]2SC1 [Cephalexin] | 81 | 98 | 98 |  |  | 
CC(=O)OCC1=C(C(=O)O)N2C(=O)[C@@H](NC(=O)Cc3cccs3)[C@H]2SC1 [Cephalothin] | 91 | 97 | 82 |  |  | 
CCS(=O)(=O)N1CCN(c2ccc(Nc3ncc(C(N)=O)c(NC4CC4)n3)cc2)CC1 [Cerdulatinib (PRT062070, PRT2070)] | 82 | 95 | 95 |  |  | 
Cl.Cl.O=C(O)COCCN1CCN(C(c2ccccc2)c2ccc(Cl)cc2)CC1 (stereo not drawn) [Cetirizine DiHCl] |  |  |  | 89 | 92 | 84
CCCCCCCCCCCCCCCC[N+](C)(C)C.[Br-] [Cetrimonium Bromide (CTAB)] | 103 | 97 | 92 |  |  | 
C[C@H](CCC(=O)O)[C@H]1CC[C@H]2[C@@H]3[C@H](O)C[C@@H]4C[C@H](O)CC[C@]4(C)[C@H]3CC[C@]12C [Chenodeoxycholic Acid] | 102 | 87 | 115 |  |  | 
O=C(N[C@H](CO)[C@H](O)c1ccc([N+](=O)[O-])cc1)C(Cl)Cl [Chloramphenicol] | 80 | 96 | 83 |  |  | 
[H]/N=C(\N/C(=N/[H])NCCCCCCNC(=N)NC(=N)Nc1ccc(Cl)cc1)Nc1ccc(Cl)cc1 [Chlorhexidine HCl] | 112 | 97 | 118 |  |  | 
CC(=O)O[C@]1(C(C)=O)CC[C@H]2[C@@H]3C=C(Cl)C4=CC(=O)CC[C@]4(C)[C@H]3CC[C@@]21C [Chlormadinone acetate] | 76 | 85 | 81 |  |  | 
CN1C(=O)CCS(=O)(=O)C1c1ccc(Cl)cc1 (stereo not drawn) [Chlormezanone] | 127 | 81 | 91 |  |  | 
O=C(O)CCCc1ccc(N(CCCl)CCCl)cc1 [Chloroambucil] | 103 | 98 | 77 |  |  | 
Cc1cc(O)ccc1Cl [Chlorocresol] | 101 | 89 | 77 |  |  | 

SMILES | % Phosphatase Activity (compared to DMSO) PRL-2 [1, 4] [%] | % Phosphatase Activity (compared to DMSO) PRL-1 [2, 4] [%] | % Phosphatase Activity (compared to DMSO) PRL-3 [3, 4] [%] | % Phosphatase Activity (compared to DMSO) PRL-2 [1] [%] | % Phosphatase Activity (compared to DMSO) PRL-1 [2] [%] | % Phosphatase Activity (compared to DMSO) PRL-3 [3] [%]
NS(=O)(=O)c1cc2c(cc1Cl)N=CNS2(=O)=O [Chlorothiazide] | 80 | 105 | 76 |  |  | 
COc1ccc(C(Cl)=C(c2ccc(OC)cc2)c2ccc(OC)cc2)cc1 [Chlorotrianisene] | 110 | 103 | 92 |  |  | 
Oc1c(Cl)cc(Cl)c2cccnc12 [Chloroxine] | 111 | 90 | 86 |  |  | 
Cc1cc(O)cc(C)c1Cl [Chloroxylenol] | 112 | 93 | 92 |  |  | 
CCCNC(=O)NS(=O)(=O)c1ccc(Cl)cc1 [Chlorpropamide] | 105 | 98 | 80 |  |  | 
CN(C)CC/C=C1/c2ccccc2Sc2ccc(Cl)cc21 [Chlorprothixene] | 107 | 98 | 93 |  |  | 
Cc1ccc2c(Cl)cc(Cl)c(O)c2n1 [Chlorquinaldol] | 102 | 88 | 71 |  |  | 
CN(C)[C@@H]1C(O)=C(C(N)=O)C(=O)[C@@]2(O)C(O)=C3C(=O)c4c(O)ccc(Cl)c4[C@@](C)(O)[C@H]3C[C@@H]12 [Chlortetracycline HCl] | 95 | 106 | 77 |  |  | 
C[N+](C)(C)CCO.[Cl-] [Choline Chloride] |  |  |  | 106 | 99 | 75
O=C(O)c1cc(=O)c2ccccc2o1 [Chromocarb] | 102 | 95 | 85 |  |  | 
CC(C)C(=O)OCC(=O)[C@@]12O[C@H](C3CCCCC3)O[C@@H]1C[C@H]1[C@@H]3CCC4=CC(=O)C=C[C@]4(C)[C@H]3[C@@H](O)C[C@@]12C [Ciclesonide] | 108 | 100 | 88 |  |  | 
Cc1cc(C2CCCCC2)n(O)c(=O)c1.NCCO [Ciclopirox ethanolamine] | 109 | 106 | 83 |  |  | 
CCOC(=O)[C@H](CCc1ccccc1)N[C@H]1CCCN2CCC[C@@H](C(=O)O)N2C1=O [Cilazapril Monohydrate] | 111 | 91 | 73 |  |  | 
CC(C)[C@H]1C(=O)N[C@@H](CCCN=C(N)N)C(=O)NCC(=O)N[C@@H](CC(=O)O)C(=O)N[C@H](Cc2ccccc2)C(=O)N1C [Cilengitide] | 91 | 100 | 96 |  |  | 
COCCOC(=O)C1=C(C)NC(C)=C(C(=O)OC/C=C/c2ccccc2)C1c1cccc([N+](=O)[O-])c1 (stereo not drawn) [Cilnidipine] | 95 | 95 | 68 |  |  | 
O=C1CCc2cc(OCCCCc3nnnn3C3CCCCC3)ccc2N1 [Cilostazol] | 83 | 88 | 69 |  |  | 
O=C(O)c1cc(-c2ccccc2)nc2ccccc12 [Cinchophen] | 101 | 86 | 79 |  |  | 
COc1cc(/C=C/C(=O)N2CCN(CC(=O)N3CCCC3)CC2)cc(OC)c1OC.O=C(O)/C=C\C(=O)O [Cinepazide maleate] | 134 | 112 | 113 |  |  | 
CC(C)(Oc1ccc(C2CC2(Cl)Cl)cc1)C(=O)O (stereo not drawn) [Ciprofibrate] | 91 | 95 | 88 |  |  | 
